Experimental data reported in patent US20100247629A1, “Method for drug loading in liposomes” (Yissum Research Development Company of the Hebrew …, priority 2003, published 2010).

Columns and labels:
M109-R [1] = assay: In vitro cytotoxicity (growth inhibition, methylene blue); format: cell-based, mouse; settings: M109-R (doxorubicin-resistant); continuous exposure 72 hours
Experimental: (§1) M109-R and KB-V cell lines are doxorubicin-resistant sublines of M109-S and KB, respectively. The cells were exposed continuously to the drug formulation for 72 hours following the experimental details described by Horowitz, et al., Biochimica et Biophysica Acta, 1109:203-209 (1992) and also in Example 2.
(§2) Cells for each line were exposed continuously to drug for 72 hours. Other experimental details were as described by Horowitz et al., Biochem Biophys Acta, 1109(2):203 (1992). Briefly, 5×10^3 cells from exponentially growing cultures in 200 μL aliquots were plated onto 96-well flat-bottom microtiter plates. […] For each 10-fold increase in drug concentration, six drug concentration points were tested. Each test was performed in triplicate wells and in two parallel plates. The cells were treated continuously for 72 hours. The cultures were fixed by the addition of 50 μL 2.5% glutaraldehyde to each well for 10 minutes. The plates were washed three times with de-ionized water, once with 0.1 M borate buffer (pH 8.5) and then stained for 60 minutes with 100 μL methylene blue (1% in 0.1 M buffer borate, pH 8.5) at room temperature. […] The dye was extracted with 200 μL 0.1 M HCl for 60 min at 37° C. and the optical density was determined using a microplate spectrophotometer.
(§3) The growth rate was calculated by dividing the doubling times of drug-treated cells with those of the control cells.

M109-S = assay: as above; format: cell-based, mouse; settings: continuous exposure 72 hours
Experimental: as §1, §2, §3

C26 = assay: as above; format: cell-based, human; settings: continuous exposure 72 hours
Experimental: as §1
(§4) Cells for each line were exposed continuously to drug for 72 hours. Other experimental details were as described by Horowitz et al., Biochem Biophys Acta, 1109(2):203 (1992). Briefly, 5×10^3 cells from exponentially growing cultures in 200 μL aliquots were plated onto 96-well flat-bottom microtiter plates. […] For each 10-fold increase in drug concentration, six drug concentration points were tested. Each test was performed in triplicate wells and in two parallel plates. The cells were treated continuously for 72 hours. The cultures were fixed by the addition of 50 μL 2.5% glutaraldehyde to each well for 10 minutes. The plates were washed three times with de-ionized water, once with 0.1 M borate buffer (pH 8.5) and then stained for 60 minutes with 100 μL methylene blue (1% in 0.1 M buffer borate, pH 8.5) at room temperature. The plates were rinsed in five baths of de-ionized water to remove non-cell bound dye and were then dried. The dye was extracted with 200 μL 0.1 M HCl for 60 min at 37° C. and the optical density was determined using a microplate spectrophotometer.
as §3

KB-V [2] = assay: as above; format: cell-based, human; settings: KB-V (doxorubicin-resistant); continuous exposure 72 hours
Experimental: as §1, §4, §3

KB [3] = assay: as above; format: cell-based, human; settings: continuous exposure 72 hours
Experimental: as §1, §4, §3

KB-V [4] = assay: In vitro uptake of doxorubicin into tumor cells; format: cell-based, human
Experimental: (§5) There is a greater drug accumulation in cells treated with lipo-dox-AG than in those treated with lipo-dox-AS.
(§6) Cellular accumulation of doxorubicin was assayed by a method similar to that described in Chambers, S. K. et al., Cancer Res., 49:6275-6279 (1989). […] At the end of the incubation, the cells were rinsed three times with PBS and the drug was extracted from the cells with 1 mL acidified isopropanol (0.075 M HCl in 90% isopropanol), for 20 hours at 4° C. Doxorubicin concentration was determined spectrofluorometrically using an excitation wavelength of 470 nm and an emission wavelength of 590 nm. The fluorescence intensity emitted was translated into doxorubicin-equivalents based on a doxorubicin standard curve, after readings of untreated background cells were subtracted.

KB [5] = assay: In vitro uptake of doxorubicin into tumor cells; format: cell-based, human
Experimental: as §5, §6

M109-R [6] = assay: In vitro uptake of doxorubicin into tumor cells; format: cell-based, mouse; settings: 24 exposure
Experimental: as §5, §6

C-26 cells = assay: In vivo therapeutic activity, C-26 tumor survival; parameters: species or system mice; settings: C-26 tumor i.p., 10 mg/kg i.v. five days after inoculation
Text: Untreated (control) mice died quickly with a median survival of 13 days (not shown).
In another study, mice were inoculated i.p. with C-26 cells (10^6 cells).

[7] = Solubility and precipitation of doxorubicin in ammonium salt solutions; format: physicochemical
Experimental: The higher release rate is a result of using glucuronate as the balancing anion. […] In addition, doxorubicin precipitates at less than 2 mM concentration in the presence of sulfate ions, while a much higher concentration of doxorubicin is required for precipitation to occur in the presence of glucuronate ions. Accordingly, when glucuronate is the balancing anion, more of the therapeutic agent is in a soluble form and therefore it is more available for release from the liposomes. Further, the permeability of glucuronate through the liposomal membranes is very low, possibly due to its low pKa, its bulkiness and/or polarity, making it very efficient for maintaining the ammonium ion gradient for loading of the therapeutic agents.

What does the source list for `COc1cccc2c1C(=O)c1c(O)c3c(c(O)c1C2=O)C[C@@](O)(C(=O)CO)C[C@@H]3O[C@H]1C[C@H](N)[C@H](O)[C@H](C)O1` [free doxorubicin, doxorubicin]?
IC50 (M109-R [1]): 2000 nM; IC50 (M109-S): 560 nM; IC50 (C26): 960 nM; IC50 (KB-V [2]): 690 nM; IC50 (KB [3]): 40 nM; Doxorubicin Uptake (KB-V [4]; 1 hr exposure): 311 (22) ng DOX/10^6 cells; Doxorubicin Uptake (KB-V [4]; 5 hr exposure): 931 (21) ng DOX/10^6 cells; Doxorubicin Uptake (KB [5]; 1 hr exposure): 426 (33) ng DOX/10^6 cells; Doxorubicin Uptake (KB [5]; 5 hr exposure): 937 (46) ng DOX/10^6 cells; Doxorubicin Uptake (KB [5]; 24 hr exposure): 840 (15) ng DOX/10^6 cells; Doxorubicin Uptake (M109-R [6]): 80 (3) ng DOX/10^6 cells; increase in mean survival time over control (C-26 cells): 4 days; mean survival time (C-26 cells): 17 days; solubility in 250 mM ammonium glucuronate relative to 250 mM ammonium sulfate ([7]; 250 mM AG solution vs 250 mM AS solution): approximately 100 fold; concentration at which doxorubicin precipitates ([7]; in the presence of sulfate ions): less than 2 mM
